Laboratory results published in ChEMBL document CHEMBL1201862, “PubChem BioAssay data set” (2004).
Activity calls are given as the source filed them.

What was measured:
[1] = A High Throughput Confirmatory Assay used to Identify Novel Compounds that Inhibit Mycobacterium Tuberculosis in the absence of Glycerol using Purified and Synthesized Compounds (3).; type: functional
[2] = tested on: HEK293; assay: HEK293T cell viability loss, resazurin readout – resazurin fluorescence, cytotoxicity control for NF-kB activator project, SAR follow-up (AID 493251); type: functional, cell-based; details: Homo sapiens
[3] = tested on: Jurkat; assay: SAR Analysis of small molecule inhibitors of both B-cell and T-cell specific antigen receptor-induced NF-kB activation in a Jurkat cell line using a luminescence assay. [Related pubchem assays (depositor defined):AID435003, AID435022, AID465, AID489029]; type: functional, cell-based; details: Homo sapiens
[4] = tested on: HEK293; assay: SAR Analysis of small molecule inhibitors of both B-cell and T-cell specific antigen receptor-induced NF-kB activation in a HEK-293T cell line using a luminescence assay. [Related pubchem assays (depositor defined):AID435003, AID435022, AID465, AID489019, AID489029]; type: functional, cell-based; details: Homo sapiens
[5] = tested on: HEK293; assay: cells; type: functional, cell-based; details: Homo sapiens
[6] = biological target: Nuclear receptor subfamily 0 group B member 1 (Homo sapiens, UniProt P51843); assay: Luminescence-based cell-based high throughput dose response assay for inhibitors of the orphan nuclear receptor subfamily 0, group B, member 1 (DAX1; NR0B1). [Related pubchem assays (depositor defined):AID504766, AID504790]; type: functional
Nuclear receptor subfamily 0 group B member 1, sequence (P51843 whole entry): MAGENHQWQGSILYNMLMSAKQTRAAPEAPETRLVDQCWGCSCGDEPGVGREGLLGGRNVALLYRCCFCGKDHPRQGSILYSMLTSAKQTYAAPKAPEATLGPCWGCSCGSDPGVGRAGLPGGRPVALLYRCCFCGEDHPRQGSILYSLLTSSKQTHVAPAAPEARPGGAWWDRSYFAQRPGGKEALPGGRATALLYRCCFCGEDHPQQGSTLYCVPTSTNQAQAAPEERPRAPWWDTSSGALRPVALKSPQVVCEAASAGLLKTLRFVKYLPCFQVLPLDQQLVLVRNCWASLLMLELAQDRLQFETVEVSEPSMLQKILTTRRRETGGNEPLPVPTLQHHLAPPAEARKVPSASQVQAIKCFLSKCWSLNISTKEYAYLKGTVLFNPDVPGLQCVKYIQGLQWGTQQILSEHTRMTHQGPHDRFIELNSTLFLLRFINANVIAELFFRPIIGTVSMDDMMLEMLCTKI

[7] = biological target: Beta-2 adrenergic receptor (Homo sapiens, UniProt P07550); assay: ADRB2 activation measured by internalization – cell-based, FAP fluorogen, flow cytometry, cherry pick 1, dose response (AID 588763); type: functional
Beta-2 adrenergic receptor, sequence (P07550 whole entry): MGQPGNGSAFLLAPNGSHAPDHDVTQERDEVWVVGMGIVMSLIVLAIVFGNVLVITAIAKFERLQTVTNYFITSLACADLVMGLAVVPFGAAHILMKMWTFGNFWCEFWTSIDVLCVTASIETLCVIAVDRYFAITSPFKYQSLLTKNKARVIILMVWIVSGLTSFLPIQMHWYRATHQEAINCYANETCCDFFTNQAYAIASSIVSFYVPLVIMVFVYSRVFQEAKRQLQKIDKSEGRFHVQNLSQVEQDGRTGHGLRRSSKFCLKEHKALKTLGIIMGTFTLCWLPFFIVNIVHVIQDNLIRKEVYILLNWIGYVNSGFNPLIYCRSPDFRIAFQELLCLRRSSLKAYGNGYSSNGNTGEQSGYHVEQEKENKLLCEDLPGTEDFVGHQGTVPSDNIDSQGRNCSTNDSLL

[8] = biological target: T1, Caspase-3 (Homo sapiens, UniProt P42574); assay: inhibition of recombinant caspase-3 activity – biochemical, luminescence, set 2, selectivity assay for SENP protease inhibitor project, SAR follow-up (AID 588599); type: functional
T1 sequence (P42574 whole entry): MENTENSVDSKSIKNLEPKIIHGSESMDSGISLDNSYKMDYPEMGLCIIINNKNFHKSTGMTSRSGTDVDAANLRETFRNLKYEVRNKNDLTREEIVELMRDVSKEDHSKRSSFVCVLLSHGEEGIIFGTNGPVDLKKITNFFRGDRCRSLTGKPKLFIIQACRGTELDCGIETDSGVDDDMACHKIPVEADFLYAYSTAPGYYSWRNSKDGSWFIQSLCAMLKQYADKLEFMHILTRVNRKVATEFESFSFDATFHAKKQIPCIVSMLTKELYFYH

[9] = biological target: T2, Sentrin-specific protease 8 (Homo sapiens, UniProt Q96LD8); assay: inhibition of sentrin protease 8 – biochemical, luminescence, set 2, SAR follow-up (AID 588601); type: functional
T2 sequence (Q96LD8 whole entry): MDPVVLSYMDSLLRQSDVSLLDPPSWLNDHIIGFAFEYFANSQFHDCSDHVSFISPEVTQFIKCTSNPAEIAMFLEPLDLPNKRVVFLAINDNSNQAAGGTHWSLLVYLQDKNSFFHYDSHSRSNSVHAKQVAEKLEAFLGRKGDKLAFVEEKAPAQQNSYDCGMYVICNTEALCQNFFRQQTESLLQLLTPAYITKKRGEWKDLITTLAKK

[10] = biological target: T3, Sentrin-specific protease 7 (Homo sapiens, UniProt Q9BQF6); assay: inhibition of human SENP7 cleavage activity – biochemical, luminescence, set 2, SAR follow-up (AID 588600); type: functional
T3 sequence (Q9BQF6 whole entry): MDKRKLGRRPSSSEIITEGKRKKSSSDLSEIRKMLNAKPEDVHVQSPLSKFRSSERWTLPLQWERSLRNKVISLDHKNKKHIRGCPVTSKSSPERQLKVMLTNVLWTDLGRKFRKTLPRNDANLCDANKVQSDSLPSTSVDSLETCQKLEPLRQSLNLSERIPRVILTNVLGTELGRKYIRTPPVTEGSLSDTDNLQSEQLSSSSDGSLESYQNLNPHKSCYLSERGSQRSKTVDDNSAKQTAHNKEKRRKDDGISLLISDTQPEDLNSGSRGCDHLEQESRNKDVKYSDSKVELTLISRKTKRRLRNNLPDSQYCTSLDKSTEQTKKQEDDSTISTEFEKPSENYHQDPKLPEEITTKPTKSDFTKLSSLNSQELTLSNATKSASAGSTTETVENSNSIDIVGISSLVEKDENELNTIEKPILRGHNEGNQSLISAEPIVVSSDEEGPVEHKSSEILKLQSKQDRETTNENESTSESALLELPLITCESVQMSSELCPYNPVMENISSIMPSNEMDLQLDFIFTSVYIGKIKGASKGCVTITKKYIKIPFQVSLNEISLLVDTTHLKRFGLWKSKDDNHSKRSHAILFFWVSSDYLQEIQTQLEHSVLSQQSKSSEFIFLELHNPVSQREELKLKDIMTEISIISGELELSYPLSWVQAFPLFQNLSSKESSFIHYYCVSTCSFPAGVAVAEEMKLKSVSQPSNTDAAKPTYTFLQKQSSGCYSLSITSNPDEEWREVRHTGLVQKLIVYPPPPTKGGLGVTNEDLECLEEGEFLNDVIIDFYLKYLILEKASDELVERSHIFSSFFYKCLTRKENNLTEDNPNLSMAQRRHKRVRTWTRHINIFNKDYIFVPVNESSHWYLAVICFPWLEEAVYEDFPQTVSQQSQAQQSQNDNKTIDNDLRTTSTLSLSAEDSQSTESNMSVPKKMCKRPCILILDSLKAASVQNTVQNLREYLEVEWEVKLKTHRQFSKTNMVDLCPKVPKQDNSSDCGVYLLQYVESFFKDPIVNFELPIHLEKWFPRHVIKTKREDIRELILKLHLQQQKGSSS

[11] = biological target: T4, Sentrin-specific protease 6 (Homo sapiens, UniProt Q9GZR1); assay: inhibition of human SENP6 catalytic domain – biochemical, luminescence, set 2, SAR follow-up (AID 588598); type: functional
T4 sequence (Q9GZR1 whole entry): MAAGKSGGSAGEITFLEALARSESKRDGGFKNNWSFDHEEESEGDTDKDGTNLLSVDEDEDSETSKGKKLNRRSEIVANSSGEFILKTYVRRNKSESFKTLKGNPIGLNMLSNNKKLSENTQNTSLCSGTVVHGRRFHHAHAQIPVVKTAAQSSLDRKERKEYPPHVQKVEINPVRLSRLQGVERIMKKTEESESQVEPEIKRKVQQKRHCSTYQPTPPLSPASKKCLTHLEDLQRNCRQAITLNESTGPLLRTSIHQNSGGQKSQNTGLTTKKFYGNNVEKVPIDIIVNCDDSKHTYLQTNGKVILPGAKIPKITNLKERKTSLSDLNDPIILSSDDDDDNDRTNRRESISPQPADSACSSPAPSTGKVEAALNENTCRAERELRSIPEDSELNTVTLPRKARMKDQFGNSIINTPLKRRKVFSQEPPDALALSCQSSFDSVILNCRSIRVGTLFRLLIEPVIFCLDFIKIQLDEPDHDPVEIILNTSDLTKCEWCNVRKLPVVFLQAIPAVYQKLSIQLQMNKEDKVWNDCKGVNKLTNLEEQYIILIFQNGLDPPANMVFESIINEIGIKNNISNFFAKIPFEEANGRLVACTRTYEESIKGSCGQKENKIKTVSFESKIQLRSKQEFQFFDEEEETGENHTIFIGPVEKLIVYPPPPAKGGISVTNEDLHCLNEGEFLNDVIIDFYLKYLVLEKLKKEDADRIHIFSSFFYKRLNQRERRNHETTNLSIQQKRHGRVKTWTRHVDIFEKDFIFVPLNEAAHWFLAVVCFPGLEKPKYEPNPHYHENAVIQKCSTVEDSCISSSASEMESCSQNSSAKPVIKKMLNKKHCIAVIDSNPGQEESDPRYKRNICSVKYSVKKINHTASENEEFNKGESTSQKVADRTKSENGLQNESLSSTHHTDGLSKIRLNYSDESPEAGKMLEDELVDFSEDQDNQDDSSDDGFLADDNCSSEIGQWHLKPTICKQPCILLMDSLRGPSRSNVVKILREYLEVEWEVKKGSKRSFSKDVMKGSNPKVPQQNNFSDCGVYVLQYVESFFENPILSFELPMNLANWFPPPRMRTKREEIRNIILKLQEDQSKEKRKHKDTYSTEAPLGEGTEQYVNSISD

SMILES: CCOc1ccc(NC(=O)CSc2nc(O)c(C)c(=O)n2-c2ccc(F)cc2)cc1
- IC50 [1]: > 25 µM (active)

SMILES: COc1cc(N)c2ncccc2c1
- IC50 [2]: 43.1 µM (inactive)
- IC50 [3]: 76.2 µM (inactive)
- IC50 [4]: > 79 µM (inactive)

SMILES: c1ccc(N2CCN(c3ccccc3)C2c2cccs2)cc1
- IC50 [5]: > 67.5 µM (inactive)
- IC50 [6]: > 67.5 µM (inactive)

SMILES: CN(CCOc1ccc(-c2ccn(S(=O)(=O)c3cccc4ccccc34)n2)cc1)c1ccccn1
- EC50 [7]: 2.53 µM (active)

SMILES: Cc1[nH]c2ccccc2c1/C=N/NC(=O)c1cc2ccccc2cc1O
- IC50 [8]: > 99 µM (inactive)
- IC50 [9]: 79.4 µM (active)
- IC50 [10]: 95.7 µM (active)
- IC50 [11]: 83.4 µM (active)
